From patent US20230213527A1, “COMPOSITIONS AND METHODS FOR POLYPEPTIDE ANALYSIS” (Quantum-Si Incorporated, priority 2021, published 2023)
Square brackets hold non-standard residues; d marks the D form. Ends that are not written are not given here. Cit = NC(=O)NCCC[C@H](N)C(=O)O

How the values were obtained:
PS961 [1] = assay: Dynamic single-molecule sequencing, recognition by PS961; format: binding, Planctomycetes
PS1223 = assay: Dynamic single-molecule sequencing, recognition by PS1223; format: binding; conditions: recognizer PS1223, recognition of the N-terminal amino acid
Sequence of PS1223 (as listed by the source): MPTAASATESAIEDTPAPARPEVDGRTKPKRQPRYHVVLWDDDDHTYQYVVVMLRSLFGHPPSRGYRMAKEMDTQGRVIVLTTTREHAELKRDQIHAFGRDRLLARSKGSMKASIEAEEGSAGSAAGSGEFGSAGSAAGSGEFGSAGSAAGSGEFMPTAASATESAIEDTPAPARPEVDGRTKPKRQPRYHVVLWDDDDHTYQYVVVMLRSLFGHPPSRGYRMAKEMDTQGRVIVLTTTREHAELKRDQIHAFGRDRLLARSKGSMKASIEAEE
Description: Sequencing reactions using the recognizers PS610 (FYW), PS1220 (R), and PS1223 (LIV) were performed separately for the QP706 and QP1073 peptide fragments. Each recognizer was labeled with a unique dye and/or unique number of dyes. A scatter plot of bin ratio v. pulse duration is shown for the QP706 peptide fragment in FIG. 18A and for the QP1073 peptide fragment in FIG. 18B. In the plot of FIG. 18A, three clusters corresponding to FLE, LEQ, and RFL segments are visible. […] In the plot of FIG. 18B, two clusters corresponding to FLE and LEQ segments are visible, but there is no cluster corresponding to RFL.
In this example, sequencing reactions were conducted for 4 pairs of unmodified and citrullinated peptides: QP1028 & QP1029, QP1030 & QP1031, QP1032 & QP1033, and QP707 & QP789. […] For the QP1028 & QP1029 and QP1030 & QP1031 pairs, sequencing reactions were conducted using the PS610 (FYW) recognizer. For the QP1032 & QP1033 and QP707 & QP789 pairs, sequencing reactions were conducted using the PS1223 (LIV) recognizer.

PS621 = target: T1, PS621 (Kluyveromyces lactis, UniProt O60014, E174T/N105S/N176F/R116K/S153T/V146T); assay: Dynamic single-molecule sequencing, recognition by PS621; format: binding; conditions: citrulline at position 2
T1 construct: PS621; […]
T1 sequence (O60014 other isoform, or with tags, fused parts or gaps N105S/R116K/V146T/S153T/E174T/N176F): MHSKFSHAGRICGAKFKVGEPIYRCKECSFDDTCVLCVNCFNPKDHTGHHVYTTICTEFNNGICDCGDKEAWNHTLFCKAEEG

PS610 = assay: Dynamic single-molecule sequencing, recognition by PS610; format: binding, A. tumefaciens
PhTET3 = target: T2, PhTET3 (Pyrococcus horikoshii, UniProt O59485); assay: Aminopeptidase cleavage during dynamic sequencing with PhTET3; format: biochemical, P. horikoshii
T2 construct: His tag (inferred: purified as the recognizers, on Ni-NTA); made in house; host or cells: E. coli BL21(DE3)
T2 sequence (O59485 1-354): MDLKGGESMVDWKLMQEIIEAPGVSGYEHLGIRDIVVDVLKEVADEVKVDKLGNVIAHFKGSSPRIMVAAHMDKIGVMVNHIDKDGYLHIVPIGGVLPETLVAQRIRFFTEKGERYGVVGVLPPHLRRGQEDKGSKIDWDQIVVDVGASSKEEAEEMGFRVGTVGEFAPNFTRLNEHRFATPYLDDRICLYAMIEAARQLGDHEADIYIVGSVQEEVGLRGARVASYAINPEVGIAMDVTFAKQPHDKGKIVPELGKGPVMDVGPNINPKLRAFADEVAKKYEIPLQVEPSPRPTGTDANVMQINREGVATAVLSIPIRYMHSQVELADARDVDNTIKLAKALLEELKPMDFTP
Description: The collected traces consisted of regions of distinct pulsing, which were referred to as recognition segments (RSs), separated by regions lacking recognition pulsing (non-recognition segments, NRSs). Analysis software was developed to automatically identify pulsing regions and transition points within traces (Methods). Traces began with recognition of phenylalanine with a median PD of 2.36 s (FIG. 2D), in agreement with the PD observed for FAA in recognition-only assays. This pattern terminated after aminopeptidase addition (on average 11 min after addition), and was followed by the ordered appearance of two RSs with median PDs of 0.25 s and 0.49 s (FIG. 2D), corresponding to the short and medium PDs obtained in YAA and WAA recognition-only assays.
(§1) A second chip check was then performed. […] Data was recorded for 15 min.

PS961 [2] = assay: NAA recognition-only single-molecule assay on chip with PS961; format: binding, Planctomycetes; conditions: 250 nM PS961
Description: To expand the set of recognizable NAAs, N-end rule pathway proteins were investigated as a source of additional recognizers. In a comprehensive screen of diverse ClpS family proteins, a group of ClpS proteins from the bacterial phylum Planctomycetes with native binding to N-terminal leucine, isoleucine, and valine was discovered. […] The median PD of binding to peptides with N-terminal LAA, IAA, and VAA was 1.21, 0.28, and 0.21 s, respectively, in agreement with bulk characterization (FIG. 7C).
as §1
The resulting regions are called recognition segments (RSs).

Sequence of PS961 (as listed by the source): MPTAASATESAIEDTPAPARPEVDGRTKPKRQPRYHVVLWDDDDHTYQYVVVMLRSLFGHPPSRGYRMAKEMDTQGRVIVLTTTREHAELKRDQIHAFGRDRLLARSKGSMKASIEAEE

Substance: LCitLAFAYPDDDK (L[Cit]LAFAYPDDDK) [QP789]
- Median PD of recognition of N-terminal leucine by PS961 (PS961 [1]; arginine or citrulline at position 2): 0.78 s
- Pulse Width (PS1223): 0.92 s
- N-terminal arginine recognition by PS621 (PS621): eliminated

Substance: FAAWAAYAA [FAAWAAYAAAADDD]
- Median PD, recognition of phenylalanine (first RS) (PS610; PS610, PhTET3 added after 15 minutes): 2.36 s
- Median PD, first RS appearing after phenylalanine (PS610; PS610 with PhTET3): 0.25 s
- Median PD, second RS appearing after phenylalanine (PS610; PS610 with PhTET3): 0.49 s
- Termination of phenylalanine recognition pattern after aminopeptidase addition (average) (PhTET3): 11 min

Substance: IAA: peptide with N-terminal IAA; in b185 the N-terminal IAA state of LAQFASIAAYASDDD (not fully specified (C-terminus); also: C-terminal azidolysine conjugated to DNA-streptavidin linker)
- Median PD of binding (PS961 [2]): 0.28 s
- Median PD (PS961 [1]; peptide LAQFASIAAYASDDD, PS610 and PS961, PhTET2 and PhTET3): 0.25 s
